Assay results taken from PubChem BioAssay AID248 (DTP/NCI, 2004).
Toxic doses and inconclusive results are not listed.

System: L1210 leukemia ip in BDF1 mice, survival T/C
Test: NCI In Vivo Anticancer Drug Screen. Data for tumor model L1210 Leukemia (intraperitoneal) in B6D2F1 (BDF1) mice
Details: endpoint: mean survival time, higher = longer survival
How it was run: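 Tumor cells were implanted, animals were treated, and survival was followed. The result divides the treated measurement by the vehicle-control measurement.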

[1] = dose: 50.0 mg/kg/injection, schedule: Q01DX001 (ip), vehicle: carboxymethylcellulose (CMC)
[2] = dose: 100.0 mg/kg/injection, schedule: Q01DX001 (ip), vehicle: carboxymethylcellulose (CMC)
[3] = dose: 200.0 mg/kg/injection, schedule: Q01DX001 (ip), vehicle: carboxymethylcellulose (CMC)
[4] = dose: 400.0 mg/kg/injection, schedule: Q01DX001 (ip), vehicle: carboxymethylcellulose (CMC)
[5] = dose: 100.0 mg/kg/injection, schedule: Q04DX003 (ip), vehicle: saline with Tween-80
[6] = dose: 200.0 mg/kg/injection, schedule: Q04DX003 (ip), vehicle: saline with Tween-80
[7] = dose: 400.0 mg/kg/injection, schedule: Q04DX003 (ip), vehicle: saline with Tween-80
[8] = dose: 100.0 mg/kg/injection, schedule: Q01DX009 (ip), vehicle: saline with Tween-80
[9] = dose: 200.0 mg/kg/injection, schedule: Q01DX009 (ip), vehicle: saline with Tween-80

SMILES: CC(C)(Br)C1CC(=O)C(C)(Br)C(Br)C1 (stereo not drawn)
- T/C (dose: 100.0 mg/kg/injection, schedule: Q01DX001 (ip), vehicle: saline): 98 % of control
- T/C (dose: 200.0 mg/kg/injection, schedule: Q01DX001 (ip), vehicle: saline): 101 % of control
- T/C (dose: 400.0 mg/kg/injection, schedule: Q01DX001 (ip), vehicle: saline): 101 % of control

SMILES: CC(=O)NC(C)(CCOCc1ccccc1)C(=O)O (stereo not drawn)
- T/C [1]: 94 % of control
- T/C [2]: 100 % of control
- T/C [3]: 110 % of control
- T/C [4]: 96 % of control

SMILES: c1ccc(Cn2nnc(-c3ccccc3)n2)cc1
- T/C (dose: 100.0 mg/kg/injection, schedule: Q04DX003 (ip), vehicle: saline): 97 % of control
- T/C (dose: 200.0 mg/kg/injection, schedule: Q04DX003 (ip), vehicle: saline): 94 % of control
- T/C (dose: 400.0 mg/kg/injection, schedule: Q04DX003 (ip), vehicle: saline): 89 % of control

SMILES: Cc1ccccc1Sc1ncnc2nc[nH]c12
- T/C [5]: 91 % of control
- T/C [6]: 102 % of control
- T/C [7]: 101 % of control

SMILES: O=C(Sc1ccccc1-n1cccc1)c1ccccc1
- T/C [8]: 109 % of control
- T/C [9]: 100 % of control
- T/C (dose: 400.0 mg/kg/injection, schedule: Q01DX009 (ip), vehicle: saline with Tween-80): 102 % of control

SMILES: CCN(c1ccc(Br)cc1)c1ccc(Br)cc1
- T/C [2]: 100 % of control
- T/C [3]: 94 % of control
- T/C [4]: 105 % of control

SMILES: O=C(/C=C/c1ccccc1)CCN1CCC2CCC(C2)C1 (stereo not drawn)
- T/C [1]: 103 % of control
- T/C [2]: 97 % of control

SMILES: Cc1ncc2c(=O)n(-c3ccc([N+](=O)[O-])cc3)[nH]c2n1
- T/C [5]: 108 % of control
- T/C [6]: 100 % of control
- T/C [7]: 108 % of control

SMILES: CCCCCCCCCCCCC(=O)[O][Hg][c]1ccccc1
- T/C (dose: 9.38 mg/kg/injection, schedule: Q01DX001 (ip), vehicle: steriod suspending solution): 96 % of control
- T/C (dose: 18.75 mg/kg/injection, schedule: Q01DX001 (ip), vehicle: steriod suspending solution): 98 % of control

SMILES: COC(=O)c1ccc(OC(=O)Nc2ccc(C)c(NC(=O)Oc3ccc(C(=O)OC)cc3)c2)cc1
- T/C (dose: 50.0 mg/kg/injection, schedule: Q01DX009 (ip), vehicle: saline with Tween-80): 96 % of control
- T/C [8]: 96 % of control
- T/C [9]: 101 % of control

SMILES: CNC(=O)N(C)C1C(OC)OC2COC(c3ccccc3)OC2C1O (stereo not drawn)
- T/C (dose: 25.0 mg/kg/injection, schedule: Q01DX009 (ip), vehicle: saline): 100 % of control
- T/C (dose: 50.0 mg/kg/injection, schedule: Q01DX009 (ip), vehicle: saline): 105 % of control
- T/C (dose: 100.0 mg/kg/injection, schedule: Q01DX009 (ip), vehicle: saline): 100 % of control
- T/C (dose: 200.0 mg/kg/injection, schedule: Q01DX009 (ip), vehicle: saline): 100 % of control

SMILES: Cc1cc(=O)[nH]c2c(O)cc([N+](=O)[O-])cc12
- T/C (dose: 50.0 mg/kg/injection, schedule: Q01DX001 (ip), vehicle: Klucel (hydroxypropylcellulose) (HPC)): 111 % of control
- T/C (dose: 100.0 mg/kg/injection, schedule: Q01DX001 (ip), vehicle: Klucel (hydroxypropylcellulose) (HPC)): 100 % of control
- T/C (dose: 200.0 mg/kg/injection, schedule: Q01DX001 (ip), vehicle: Klucel (hydroxypropylcellulose) (HPC)): 97 % of control

SMILES: CCCC(=O)Nc1cc(OC)ccc1OC
- T/C (dose: 100.0 mg/kg/injection, schedule: Q01DX009 (ip), vehicle: Klucel (hydroxypropylcellulose) (HPC)): 106 % of control
- T/C (dose: 200.0 mg/kg/injection, schedule: Q01DX009 (ip), vehicle: Klucel (hydroxypropylcellulose) (HPC)): 97 % of control
